In PMC5054527, “Mechanism of high affinity inhibition of the human urate transporter URAT1” (Scientific Reports, 2016):
Positions count from the first letter of the chain named. Like-named read-outs stand apart in the source and are kept apart here.

How the values were obtained:
Experiment in all cases: URAT1 uric acid transport activity assay
Type in all cases: cell-based
[1] = molecular target: T1, r-V31L rURAT1 point mutant (Rattus norvegicus, UniProt Q3ZAV1, V31L)
T1 construct: expressed in transfected cells; host or cells: HEK-293T
T1 sequence (Q3ZAV1 1-553 V31L): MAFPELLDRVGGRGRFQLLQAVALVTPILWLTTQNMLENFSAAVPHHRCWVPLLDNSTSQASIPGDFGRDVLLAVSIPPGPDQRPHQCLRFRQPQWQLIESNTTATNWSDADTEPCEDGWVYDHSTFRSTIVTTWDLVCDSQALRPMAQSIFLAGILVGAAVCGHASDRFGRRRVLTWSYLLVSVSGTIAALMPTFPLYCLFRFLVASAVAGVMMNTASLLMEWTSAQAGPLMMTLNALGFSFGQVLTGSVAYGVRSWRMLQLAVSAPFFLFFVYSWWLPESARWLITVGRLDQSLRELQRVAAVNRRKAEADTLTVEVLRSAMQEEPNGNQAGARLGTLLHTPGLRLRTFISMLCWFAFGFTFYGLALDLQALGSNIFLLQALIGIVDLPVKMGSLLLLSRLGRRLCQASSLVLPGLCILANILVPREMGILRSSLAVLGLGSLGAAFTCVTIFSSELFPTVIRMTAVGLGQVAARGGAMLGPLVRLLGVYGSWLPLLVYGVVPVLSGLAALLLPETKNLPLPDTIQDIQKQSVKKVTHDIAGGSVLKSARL
Method in brief: (§1)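 Rat URAT1 point or double mutants in pCMV6/neo were transiently transfected into cells and assayed the next day. Compounds were preincubated for 5 minutes, then 100 μM 14C-uric acid uptake was measured over 10 minutes in triplicate. IC50 came from four-parameter variable-slope nonlinear regression.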

[2] = molecular target: T2, r-N35S rURAT1 point mutant (Rattus norvegicus, UniProt Q3ZAV1, N35S); conditions: for fold increased affinity of r-N35S compared to rURAT1: from IC50 values
T2 construct: expressed in transfected cells; host or cells: HEK-293T
T2 sequence (Q3ZAV1 1-553 N35S): T1 sequence (Q3ZAV1 1-553 V31L) with L31V, N35S
Method in brief: as §1

[3] = molecular target: T3, r-N35S/Y365F/M481I rURAT1 triple point mutant (Rattus norvegicus, UniProt Q3ZAV1, M481I/N35S/Y365F)
T3 construct: hURAT1 and rURAT1 are 553 amino acid proteins with 12 transmembrane segments; expressed in transfected cells; host or cells: HEK-293T
T3 sequence (Q3ZAV1 1-553 N35S/Y365F/M481I): T1 sequence (Q3ZAV1 1-553 V31L) with L31V, N35S, Y365F, M481I
Method in brief: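 Readout: 14C-uric acid uptake (100 μM, 10 min) in cells transiently transfected one day earlier with mutant rURAT1. Serially diluted inhibitors were added 5 min before substrate. Triplicate points, four-parameter logistic fit for IC50.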

[4] = r-N35S, MES pH 5.5, 100 μM 14C-uric acid, read-out: IC50 (uric acid transport)

In the case of `O=C1C(CC[S+]([O-])c2ccccc2)C(=O)N(c2ccccc2)N1c1ccccc1` (stereo not drawn) [sulfinpyrazone], the IC50 ([1]; r-V31L, HEPES pH 7.3, 100 μM 14C-uric acid, read-out: IC50 (uric acid transport)) is reported as 266 ± 70 µM, the “fold increased affinity of r-N35S compared to rURAT1” value [2] is reported as 3.6 fold and the IC50 ([2]; r-N35S, HEPES pH 7.3, 100 μM 14C-uric acid, read-out: IC50 (uric acid transport)) is reported as 189 ± 32 µM. It also gave an IC50 ([3]; r-N35S/Y365F/M481I, HEPES pH 7.3, 100 μM 14C-uric acid, read-out: IC50 (uric acid transport)) of 49 ± 2.2 µM.
In the case of `O=c1[nH]c(=O)c2[nH]c(=O)[nH]c2[nH]1` [uric acid], the “fold increased affinity of r-N35S compared to rURAT1” value [2] is reported as “no phenotype” and the IC50 [2, 4] is reported as 2660 µM.
For `O=C(O)CSc1nnc(Br)n1-c1ccc(C2CC2)c2ccccc12` [lesinurad, 2-((5-bromo-4-(4-cyclopropylnaphthalen-1-yl)-4H-1,2,4-triazol-3-yl)thio)acetic acid], the IC50 ([1]; r-V31L, MES pH 5.5, 100 μM 14C-uric acid, read-out: IC50 (uric acid transport)) was 85 ± 4.5 µM, the IC50 [2, 4] was 57 ± 6.3 µM and the IC50 ([3]; r-N35S/Y365F/M481I, MES pH 5.5, 100 μM 14C-uric acid, read-out: IC50 (uric acid transport)) was 1.2 ± 0.14 µM.
With `CCc1oc2ccccc2c1C(=O)c1cc(Br)c(O)c(Br)c1` [benzbromarone] the IC50 [1] was 17 ± 3.4 µM, the IC50 [2] was 17 ± 2.1 µM and the IC50 [3] was 0.61 ± 0.04 µM.
